Source: patent publication US10138236B2, “Factor xia-inhibiting pyridobenzazepine and pyridobenzazocine derivatives” (BAYER PHARMA AKTIENGESELLSCHAFT, priority 2014, dated 2018)
pIC50: −log10 of the molar value. Blank lines part the entries; values can stand above or below the compound they belong to.

Legend:
[1] = target: human factor XIa (Homo sapiens (Human), UniProt P03951); test: Measurement of FXIa inhibition; format: biochemical; details: factor XIa from Kordia, substrate Boc-Glu(OBzl)-Ala-Arg-AMC, fluorescence
Protocol: a.1) Measurement of FXIa Inhibition
(§1) The factor XIa inhibition of the substances according to the invention is determined using a biochemical test system which utilizes the reaction of a peptidic factor XIa substrate to determine the enzymatic activity of human factor XIa. Here, factor XIa cleaves from the peptic factor XIa substrate the C-terminal aminomethylcoumarin (AMC), the fluorescence of which is measured. The determinations are carried out in microtitre plates.
1 μl of the diluted substance solutions is placed into each of the wells of white microtitre plates from Greiner (384 wells). […] After 15 min of incubation, the enzyme reaction is started by addition of 20 μl of the factor XIa substrate Boc-Glu(OBzl)-Ala-Arg-AMC dissolved in assay buffer (10 μM in assay buffer) from Bachem, the mixture is incubated at room temperature (22° C.) for 30 min and fluorescence is then measured (excitation: 360 nm, emission: 460 nm). The measured emissions of the test batches with test substance are compared to those of control batches without test substance (only dimethyl sulphoxide instead of test substance in dimethyl sulphoxide), and IC50 values are calculated from the concentration/activity relationships.

[2] = target: human plasma kallikrein (Homo sapiens (Human), UniProt P03952); test: Determination of the plasma kallikrein activity; format: biochemical; details: plasma kallikrein from Kordia, substrate H-Pro-Phe-Arg-AMC, fluorescence
Protocol: a.5) Determination of the Plasma Kallikrein Activity
as §1, with “To determine the plasma kallikrein” for “The factor XIa”, “invention,” for “invention is determined using”, “system is used” for “system”, “plasma kallikrein” for “factor XIa”, “plasma kallikrein.” for “factor XIa.”
1 μl of the diluted substance solutions is placed into each of the wells of white microtitre plates from Greiner (384 wells). 20 μl of assay buffer (50 mM Tris/HCl pH 7.4; 100 mM sodium chloride solution; 5 mM of calcium chloride solution; 0.1% of bovine serum albumin) and 20 μl of plasma kallikrein from Kordia (0.6 nM in assay buffer) are then added successively. After 15 min of incubation, the enzyme reaction is started by addition of 20 μl of the substrate H-Pro-Phe-Arg-AMC dissolved in assay buffer (10 μM in assay buffer) from Bachem, the mixture is incubated at room temperature (22° C.) for 30 min and fluorescence is then measured (excitation: 360 nm, emission: 460 nm). The measured emissions of the test batches with test substance are compared to those of control batches without test substance (only dimethyl sulphoxide instead of test substance in dimethyl sulphoxide), and IC50 values are calculated from the concentration/activity relationships.

Chain of human factor XIa (P03951 388-625): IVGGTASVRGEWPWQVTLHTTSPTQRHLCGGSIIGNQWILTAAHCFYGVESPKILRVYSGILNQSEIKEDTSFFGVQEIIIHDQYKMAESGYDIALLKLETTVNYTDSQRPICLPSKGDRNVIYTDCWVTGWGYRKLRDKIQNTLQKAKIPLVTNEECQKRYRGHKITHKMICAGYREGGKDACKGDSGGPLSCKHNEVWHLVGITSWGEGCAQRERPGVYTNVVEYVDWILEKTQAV
Chain of human factor XIa (P03951 19-387 partner): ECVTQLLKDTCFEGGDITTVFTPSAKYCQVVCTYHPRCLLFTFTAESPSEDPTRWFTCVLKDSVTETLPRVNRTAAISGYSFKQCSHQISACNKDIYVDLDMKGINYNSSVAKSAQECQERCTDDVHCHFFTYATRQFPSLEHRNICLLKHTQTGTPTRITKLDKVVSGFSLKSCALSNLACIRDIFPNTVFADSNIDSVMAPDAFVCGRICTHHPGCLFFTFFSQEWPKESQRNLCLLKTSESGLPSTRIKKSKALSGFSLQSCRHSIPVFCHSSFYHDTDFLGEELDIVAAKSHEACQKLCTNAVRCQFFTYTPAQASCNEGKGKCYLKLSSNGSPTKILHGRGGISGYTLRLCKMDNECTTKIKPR
Chain of human plasma kallikrein (P03952 391-638): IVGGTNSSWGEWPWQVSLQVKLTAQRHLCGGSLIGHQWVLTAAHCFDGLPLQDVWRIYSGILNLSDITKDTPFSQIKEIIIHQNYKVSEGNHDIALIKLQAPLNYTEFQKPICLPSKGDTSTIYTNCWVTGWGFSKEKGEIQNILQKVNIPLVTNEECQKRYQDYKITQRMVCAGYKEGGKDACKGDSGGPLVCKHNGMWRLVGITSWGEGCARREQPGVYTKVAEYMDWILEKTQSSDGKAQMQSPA
Chain of human plasma kallikrein (P03952 20-390 partner): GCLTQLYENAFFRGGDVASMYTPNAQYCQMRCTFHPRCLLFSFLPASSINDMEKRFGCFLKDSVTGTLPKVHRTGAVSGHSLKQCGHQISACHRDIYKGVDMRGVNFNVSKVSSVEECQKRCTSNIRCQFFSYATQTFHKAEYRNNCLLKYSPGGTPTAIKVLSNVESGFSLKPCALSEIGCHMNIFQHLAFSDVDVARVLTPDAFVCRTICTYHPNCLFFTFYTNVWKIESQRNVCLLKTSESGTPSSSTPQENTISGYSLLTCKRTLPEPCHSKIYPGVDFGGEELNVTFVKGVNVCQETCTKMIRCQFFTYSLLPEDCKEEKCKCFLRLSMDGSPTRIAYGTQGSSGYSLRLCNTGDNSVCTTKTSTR

Compound: COCCC(C(=O)Nc1ccc2nccn2c1)n1cc2c(cc1=O)-c1cc(Cl)ccc1CC1(CC1)NC2=O (stereo not shown) [Example 17, 2-(11′-Chloro-2′,5′-dioxo-2′,5′,6′,8′-tetrahydro-3′H-spiro[cyclopropane-1,7′-pyrido[3,4-e][3]benzazocine]-3′-yl)-N-(imidazo[1,2-a]pyridin-6-yl)-4-methoxybutanamide]
- pIC50 [1]: 7.36
- pIC50 [2]: 5.92

Compound: CCC(C(=O)Nc1ccc(-c2noc(=O)[nH]2)cc1)n1cc2c(cc1=O)-c1cc(Cl)ccc1CNC2=O (stereo not shown) [Example 2, 2-(10-Chloro-2,5-dioxo-2,5,6,7-tetrahydro-3H-pyrido[3,4-d][2]benzazepin-3-yl)-N-[4-(5-oxo-4,5-dihydro-1,2,4-oxadiazol-3-yl)phenyl]butanamide]
- pIC50 [1]: 6.55
- pIC50 [2]: 5.31

Compound: CCC(C(=O)Nc1ccc(C(=O)O)cc1)n1cc2c(cc1=O)-c1cc(Cl)ccc1C1(CC1)NC2=O (stereo not shown) [Example 3, 4-{[2-(10′-Chloro-2′,5′-dioxo-5′,6′-dihydrospiro[cyclopropane-1,7′-pyrido[3,4-d][2]benzazepine]-3′(2′H)-yl)butanoyl]amino}benzoic acid]
- pIC50 [1]: 6.74
- pIC50 [2]: < 4.30

Compound: Cn1cc2cc(NC(=O)C(Cc3ccccc3)n3cc4c(cc3=O)-c3cc(Cl)ccc3CC3(CC3)NC4=O)ccc2n1 (stereo not shown) [Example 30, 2-(11′-Chloro-2′,5′-dioxo-2′,5′,6′,8′-tetrahydro-3′H-spiro[cyclopropane-1,7′-pyrido[3,4-e][3]benzazocine]-3′-yl)-N-(2-methyl-2H-indazol-5-yl)-3-phenylpropanamide]
- pIC50 [1]: 8.35
- pIC50 [2]: 7.35

Compound: CO[C@H]1CC[C@H](CC(C(=O)Nc2ccc(C(N)=O)c(F)c2)n2cc3c(cc2=O)-c2cc(Cl)ccc2CC2(CC2)NC3=O)CC1 (stereo partly drawn) [Example 26, 4-{[2-(11′-Chloro-2′,5′-dioxo-2′,5′,6′,8′-tetrahydro-3′H-spiro[cyclopropane-1,7′-pyrido[3,4-e][3]benzazocine]-3′-yl)-3-(trans-4-methoxycyclohexyl)propanoyl]amino}-2-fluorobenzamide]
- pIC50 [1]: 7.47
- pIC50 [2]: 6.13

Compound: CO[C@H]1CC[C@H](CC(C(=O)Nc2ccc(C(=O)O)cc2)n2cc3c(cc2=O)-c2cc(Cl)ccc2CC2(CC2)NC3=O)CC1 (stereo partly drawn) [Example 25, 4-{[2-(11′-Chloro-2′,5′-dioxo-2′,5′,6′,8′-tetrahydro-3′H-spiro[cyclopropane-1,7′-pyrido[3,4-e][3]benzazocine]-3′-yl)-3-(trans-4-methoxycyclohexyl)propanoyl]amino}benzoic acid]
- pIC50 [1]: 8.60
- pIC50 [2]: 6.43

The next lines start with the values.

- pIC50 [1]: 8.09
- pIC50 [2]: 6.62
Compound: COCCC(C(=O)Nc1ccc2nn(C)cc2c1)n1cc2c(cc1=O)-c1cc(Cl)ccc1CC1(CC1)NC2=O (stereo not shown) [Example 15, 2-(11′-Chloro-2′,5′-dioxo-2′,5′,6′,8′-tetrahydro-3′H-spiro[cyclopropane-1,7′-pyrido[3,4-e][3]benzazocine]-3′-yl)-4-methoxy-N-(2-methyl-2H-indazol-5-yl)butanamide]

- pIC50 [1]: 7.74
- pIC50 [2]: 6.64
Compound: COCCC(C(=O)Nc1ccc2[nH]c(=O)[nH]c2c1)n1cc2c(cc1=O)-c1cc(Cl)ccc1CC1(CC1)NC2=O (stereo not shown) [Example 14, 2-(11′-Chloro-2′,5′-dioxo-2′,5′,6′,8′-tetrahydro-3′H-spiro[cyclopropane-1,7′-pyrido[3,4-e][3]benzazocine]-3′-yl)-4-methoxy-N-(2-oxo-2,3-dihydro-1H-benzimidazol-5-yl)butanamide]

- pIC50 [1]: 7.46
- pIC50 [2]: 6.10
Compound: COCCC(C(=O)Nc1csc(C(=O)O)c1)n1cc2c(cc1=O)-c1cc(Cl)ccc1CC1(CC1)NC2=O (stereo not shown) [Example 24, 4-{[2-(11′-Chloro-2′,5′-dioxo-2′,5′,6′,8′-tetrahydro-3′H-spiro[cyclopropane-1,7′-pyrido[3,4-e][3]benzazocine]-3′-yl)-4-methoxybutanoyl]amino}thiophene-2-carboxylic acid]

- pIC50 [1]: 7.44
- pIC50 [2]: 6.17
Compound: CC(C)CC(C(=O)Nc1ccc(C(=O)O)cc1)n1cc2c(cc1=O)-c1cc(Cl)ccc1CCNC2=O (stereo not shown) [Example 8, 4-{[2-(11-Chloro-2,5-dioxo-5,6,7,8-tetrahydropyrido[3,4-e][3]benzazocin-3(2H)-yl)-4-methylpentanoyl]amino}benzoic acid]

- pIC50 [1]: 8.08
- pIC50 [2]: 6.64
Compound: COCCC(C(=O)Nc1ccc2c(=O)n(C)[nH]c2c1)n1cc2c(cc1=O)-c1cc(Cl)ccc1CC1(CC1)NC2=O (stereo not shown) [Example 19, 2-(11′-Chloro-2′,5′-dioxo-2′,5′,6′,8′-tetrahydro-3′H-spiro[cyclopropane-1,7′-pyrido[3,4-e][3]benzazocine]-3′-yl)-4-methoxy-N-(2-methyl-3-oxo-2,3-dihydro-1H-indazol-6-yl)butanamide]

- pIC50 [1]: 7.36
- pIC50 [2]: 5.48
Compound: CCC(C(=O)Nc1ccc(-c2noc(=O)[nH]2)cc1)n1cc2c(cc1=O)-c1cc(Cl)ccc1CCNC2=O (stereo not shown) [Example 7, 2-(11-Chloro-2,5-dioxo-5,6,7,8-tetrahydropyrido[3,4-e][3]benzazocin-3(2H)-yl)-N-[4-(5-oxo-4,5-dihydro-1,2,4-oxadiazol-3-yl)phenyl]butanamide]

- pIC50 [1]: 6.38
- pIC50 [2]: < 5.00
Compound: CCC(C(=O)Nc1ccc(C(=O)O)cc1)n1cc2c(cc1=O)-c1cc(Cl)ccc1CNC2=O (stereo not shown) [Example 1, 4-{[2-(10-Chloro-2,5-dioxo-2,5,6,7-tetrahydro-3H-pyrido[3,4-d][2]benzazepin-3-yl)butanoyl]amino}benzoic acid]

- pIC50 [1]: 8.55
- pIC50 [2]: 7.38
Compound: COCCC(C(=O)Nc1ccc2nn(C)cc2c1)n1cc2c(cc1=O)-c1cc(Cl)ccc1CC(CF)NC2=O (stereo not shown) [Example 31, 2-[11-Chloro-7-(fluoromethyl)-2,5-dioxo-5,6,7,8-tetrahydropyrido[3,4-e][3]benzazocin-3(2H)-yl]-4-methoxy-N-(2-methyl-2H-indazol-5-yl)butanamide]
